Results reported in article PMC7146381, “Modulation of Adhesion Process, E-Selectin and VEGF Production by Anthocyanins and Their Metabolites in an In Vitro Model of Atherosclerosis” (Nutrients, 2020).
Marks after values point to notes of the source that are not given here.

Experiments:
THP-1 adhesion to HUVECs = test: THP-1 (monocytes) adhesion to TNF-α-activated HUVECs, fluorescence of labelled THP-1; assay type: cell-based, Human; conditions: 24 h after TNF-α 100 ng mL^−1
Experimental: (§1) When the confluency reached about 80%, HUVECs were removed using trypsin ([…]) and seeded on a 0.1% gelatin pre-coated 96-well black plate at the concentration of 2 × 10^4 cells/well at 37 °C and 5% CO2. After 24 h incubation, THP-1 (2 × 10^6) cells were labelled with CellTracker^TM Green CMFDA (1 µM) in 1 mL serum-free RPMI medium (containing 1% HEPES, 1% sodium pyruvate and 0.1% gentamicin) for 30 min. Successively, cells were washed twice, re-suspended in HUVEC medium at a final concentration of 2 × 10^5 cells mL^−1 and added to HUVECs. The adhesion process was induced for 24 h with 100 ng mL^−1 of TNF-α. Then, 200 μL of new medium containing the single compounds (0.02 µM, 0.2 µM, 2 µM and 20 µM for Peo and Pet-3-glc and 0.05 µM, 0.5 µM, 5 µM and 50 µM for VA and MetGA) was added and the cells were further incubated for 24 h. Medium from each well was collected and stored at −80 °C until ELISA analysis. Cells were rinsed twice with 200 µL of Hanks balanced salt solution and the fluorescence (excitation: 485 nm, emission: 538 nm) associated with the number of labeled THP-1 cells attached to the HUVECs was measured by a spectrophotometer (mod. F200 Infinite, TECAN Milan, Italy). Each compound and concentration were tested in quintuplicate in three independent experiments.

[1] = system: adhesion of monocytes to endothelial cells; design: method as in PMID 26873533; conditions: TNF-α 4 h, monocyte co-incubation 15 min; cited from earlier work
[2] = Cytotoxicity, MTT assay on HUVECs; assay type: cell-based; conditions: human, with TNF-α stimulus, mean ± SEM, read-out: Percentage of cell viability, MTT assay
Experimental: (§2) The cytotoxicity of the compounds was tested by Trypan blue and (3-(4,5-dimethylthiazol-2-yl)-2, 5-diphenyltetrazolium bromide (MTT) assay on HUVECs, according to the manufacturer’s instructions. Triton X-100 was used as positive control. Two independent experiments were performed in which each compound and concentration was tested in quadruplicate.

VEGF = test: ELISA quantification of VEGF in cell supernatant; assay type: cell-based, Human; conditions: for levels of VEGF in cell supernatant: with TNF-α 100 ng mL^−1, mean ± SEM
Experimental: as §1
(§3) At the end of the experiment, the recovered cell culture supernatants were used to quantify the concentrations of soluble VCAM-1 (Cat# EK0537, BosterBio), E-selectin (Cat# MBS355367, MyBioSource) and VEGF (Cat# V3-200-820-VEF, Vinci-Biochem). The analysis was performed using ELISA kits according to the manufacturer’s instruction. The analyses were conducted in quadruplicate and the results derived from three independent experiments.

E-selectin = test: ELISA quantification of E-selectin in cell supernatant; assay type: cell-based, Human; conditions: for levels of E-selectin in cell supernatant: with TNF-α 100 ng mL^−1, mean ± SEM; for change of E-selectin levels compared to the negative control (without TNF-α): p < 0.05
Experimental: as §1, §3

[3] = Cytotoxicity, Trypan blue assay on HUVECs; assay type: cell-based, Human; conditions: human
Experimental: as §2

soluble VCAM-1 = test: ELISA quantification of soluble VCAM-1 in cell supernatant; assay type: cell-based, Human; conditions: with TNF-α 100 ng mL^−1, mean ± SEM
Experimental: as §1, §3

HUVECs = test: Cytotoxicity, Trypan blue assay on HUVECs; assay type: cell-based, Human; conditions: positive control, HUVEC cells, data not shown; p < 0.0001 vs cells with and without TNF-α (99%)
Experimental: as §2

[4] = 0.02 µM, controls 120-121 (no TNF-α), 170-172 (TNF-α)
[5] = 0.02 µM, controls 160-164 (no TNF-α), 316-317 (TNF-α)
[6] = 0.02 µM, controls 59-64 (no TNF-α), 307-316 (TNF-α)

COc1cc(-c2[o+]c3cc(O)cc(O)c3cc2O[C@@H]2O[C@H](CO)[C@@H](O)[C@H](O)[C@H]2O)ccc1O [Peo-3-glc, peonidin-3-glucoside]
change of THP-1 adhesion to HUVECs compared to the TNF-α treatment (THP-1 adhesion to HUVECs; 0.02 µM, p < 0.0001): −37% | change of THP-1 adhesion to HUVECs compared to the TNF-α treatment (THP-1 adhesion to HUVECs; 0.2 µM, p < 0.0001): −24% | change of THP-1 adhesion to HUVECs compared to the TNF-α treatment (THP-1 adhesion to HUVECs; 2 µM, p < 0.0001): −30% | change of THP-1 adhesion to HUVECs compared to the TNF-α treatment (THP-1 adhesion to HUVECs; 20 μM, p < 0.0001): −47% | concentrations with significant reduction in the adhesion of monocytes to endothelial cells [1]: effective only at the lowest concentration | viability at 20 µM [2]: 98.5 ± 0.12% | levels of VEGF in cell supernatant (VEGF; [4]): 120 ± 6.9 ^a | change of VEGF concentrations vs TNF-α (VEGF; 0.02 μM, p < 0.001): −27% | levels of VEGF in cell supernatant (VEGF; 0.2 µM): 123 ± 1.7 ^a | change of VEGF concentrations vs TNF-α (VEGF; 0.2 μM, p < 0.001): −28% | levels of VEGF in cell supernatant (VEGF; 2 µM): 123 ± 6.0 ^a | change of VEGF concentrations vs TNF-α (VEGF; 2 μM, p < 0.001): −30% | levels of VEGF in cell supernatant (VEGF; 20 µM): 119 ± 2.6 ^a | change of VEGF concentrations vs TNF-α (VEGF; 20 μM, p < 0.001): −30% | levels of E-selectin in cell supernatant (E-selectin; [5]): 143 ± 4.3 ^a | change of E-selectin production vs TNF-α control (E-selectin; 0.02 μM, p < 0.001): −55% | levels of E-selectin in cell supernatant (E-selectin; 0.2 µM): 108 ± 5.3 ^c | change of E-selectin production vs TNF-α control (E-selectin; 0.2 μM, p < 0.001): −66% | change of E-selectin levels compared to the negative control (without TNF-α) (E-selectin; 0.2 μM): −32% | levels of E-selectin in cell supernatant (E-selectin; 2 µM): 109 ± 7.2 ^c | change of E-selectin production vs TNF-α control (E-selectin; 2 μM, p < 0.001): −65% | change of E-selectin levels compared to the negative control (without TNF-α) (E-selectin; 2 μM): −31% | levels of E-selectin in cell supernatant (E-selectin; 20 µM): 76 ± 8.4 ^c | change of E-selectin production vs TNF-α control (E-selectin; 20 μM, p < 0.001): −76% | change of E-selectin levels compared to the negative control (without TNF-α) (E-selectin; 20 µM): −53% | viability at 0.02 µM [3]: 99.7 ± 0.33% | viability at 0.2 µM [3]: 100% | viability at 2 µM [3]: 99.3 ± 0.67% | viability at 20 µM [3]: 99.3 ± 0.33% | levels of sVCAM-1 in cell supernatant (soluble VCAM-1; [6]): 107 ± 15 ^c | levels of sVCAM-1 in cell supernatant (soluble VCAM-1; 0.2 µM): 104 ± 16 ^c | levels of sVCAM-1 in cell supernatant (soluble VCAM-1; 2 µM): 186 ± 12 ^c | levels of sVCAM-1 in cell supernatant (soluble VCAM-1; 20 µM): 149 ± 24 ^c

COc1cc(-c2[o+]c3cc(O)cc(O)c3cc2O[C@@H]2O[C@H](CO)[C@@H](O)[C@H](O)[C@H]2O)cc(O)c1O [Pet-3-glc, petunidin-3-glucoside]
change of THP-1 adhesion to HUVECs compared to the TNF-α treatment (THP-1 adhesion to HUVECs; 0.02 µM, p < 0.0001): −37% | change of THP-1 adhesion to HUVECs compared to the TNF-α treatment (THP-1 adhesion to HUVECs; 0.2 µM, p < 0.0001): −33% | change of THP-1 adhesion to HUVECs compared to the TNF-α treatment (THP-1 adhesion to HUVECs; 2 µM, p < 0.0001): −33% | change of THP-1 adhesion to HUVECs compared to the TNF-α treatment (THP-1 adhesion to HUVECs; 20 μM, p < 0.0001): −45% | viability at 20 µM [2]: 94.4 ± 0.45% | levels of VEGF in cell supernatant (VEGF; [4]): 129 ± 10 ^a | change of VEGF concentrations vs TNF-α (VEGF; 0.02 μM, p < 0.001): −24% | levels of VEGF in cell supernatant (VEGF; 0.2 µM): 123 ± 7.4 ^a | change of VEGF concentrations vs TNF-α (VEGF; 0.2 μM, p < 0.001): −27% | levels of VEGF in cell supernatant (VEGF; 2 µM): 123 ± 2.9 ^a | change of VEGF concentrations vs TNF-α (VEGF; 2 μM, p < 0.001): −28% | levels of VEGF in cell supernatant (VEGF; 20 µM): 117 ± 9.9 ^a | change of VEGF concentrations vs TNF-α (VEGF; 20 μM, p < 0.001): −30% | levels of E-selectin in cell supernatant (E-selectin; [5]): 115 ± 7.5 ^c | change of E-selectin production vs TNF-α control (E-selectin; 0.02 μM, p < 0.001): −64% | change of E-selectin levels compared to the negative control (without TNF-α) (E-selectin; 0.02 µM): −28% | levels of E-selectin in cell supernatant (E-selectin; 0.2 µM): 123 ± 11.8 ^a,c | change of E-selectin production vs TNF-α control (E-selectin; 0.2 μM, p < 0.001): −60% | levels of E-selectin in cell supernatant (E-selectin; 2 µM): 104 ± 6.3 ^c | change of E-selectin production vs TNF-α control (E-selectin; 2 μM, p < 0.001): −67% | change of E-selectin levels compared to the negative control (without TNF-α) (E-selectin; 2 μM): −36% | levels of E-selectin in cell supernatant (E-selectin; 20 µM): 88 ± 12.1 ^c | change of E-selectin production vs TNF-α control (E-selectin; 20 μM, p < 0.001): −72% | change of E-selectin levels compared to the negative control (without TNF-α) (E-selectin; 20 µM): −45% | viability at 0.02 µM [3]: 110% | viability at 0.2 µM [3]: 97 ± 1% | viability at 2 µM [3]: 97.7 ± 0.33% | viability at 20 µM [3]: 100% | levels of sVCAM-1 in cell supernatant (soluble VCAM-1; [6]): 311 ± 13 ^b | levels of sVCAM-1 in cell supernatant (soluble VCAM-1; 0.2 µM): 297 ± 15 ^b | levels of sVCAM-1 in cell supernatant (soluble VCAM-1; 2 µM): 300 ± 14 ^b | levels of sVCAM-1 in cell supernatant (soluble VCAM-1; 20 µM): 83 ± 10 ^c

COc1cc(C(=O)O)ccc1O [VA, vanillic acid]
change of THP-1 adhesion to HUVECs compared to the TNF-α treatment (THP-1 adhesion to HUVECs; 50 μM, p < 0.001): −21% | concentrations with significant reduction in the adhesion of monocytes to endothelial cells [1]: 0.2 μM and 2 µM only | viability at 50 µM ([2]; 50 µM): 99.7 ± 0.32% | change of VEGF concentrations vs TNF-α (VEGF; 0.05 μM): −12% | levels of VEGF in cell supernatant (VEGF; 0.05 µM): 149 ± 3.0 ^c | change of VEGF concentrations vs TNF-α (VEGF; 0.5 μM): −17% | levels of VEGF in cell supernatant (VEGF; 0.5 µM): 141 ± 8.3 ^c | change of VEGF concentrations vs TNF-α (VEGF; 5 μM): −13% | levels of VEGF in cell supernatant (VEGF; 5 µM): 147 ± 4.9 ^c | change of VEGF concentrations vs TNF-α (VEGF; 50 μM): −21% | levels of VEGF in cell supernatant (VEGF; 50 µM): 135 ± 5.7 ^c | levels of E-selectin in cell supernatant (E-selectin; 0.05 µM): 312 ± 14.1 ^b | levels of E-selectin in cell supernatant (E-selectin; 0.5 µM): 312 ± 11.2 ^b | levels of E-selectin in cell supernatant (E-selectin; 5 µM): 305 ± 7.4 ^b | levels of E-selectin in cell supernatant (E-selectin; 50 µM): 95 ± 13.2 ^c | change of E-selectin levels with respect to the positive TNF-α control (E-selectin; 50 μM, p < 0.001): −70% | viability at 0.05 µM [3]: 100% | viability at 0.5 µM [3]: 99.7 ± 0.33% | viability at 5 µM [3]: 99.7 ± 0.66% | viability at 50 µM [3]: 99.3 ± 0.67%

Oc1cc(O)c2cc(O[C@@H]3OC[C@H](O)[C@H](O)[C@H]3O)c(-c3ccc(O)c(O)c3)[o+]c2c1 [arabinoside]
concentrations with significant reduction in the adhesion of monocytes to endothelial cells [1]: 0.1 to 2 µM

OC[C@H]1O[C@@H](Oc2cc3c(O)cc(O)cc3[o+]c2-c2ccc(O)c(O)c2)[C@H](O)[C@@H](O)[C@@H]1O [cyanidin-3-glucoside]
concentrations with significant reduction in the adhesion of monocytes to endothelial cells [1]: 0.1 to 2 µM

OC[C@H]1O[C@@H](Oc2cc3c(O)cc(O)cc3[o+]c2-c2cc(O)c(O)c(O)c2)[C@H](O)[C@@H](O)[C@@H]1O [delphinidin-3-glucoside]
concentrations with significant reduction in the adhesion of monocytes to endothelial cells [1]: all the concentrations tested

COc1cc(/C=C/C(=O)O)ccc1O [ferulic, ferulic acid]
concentrations with significant reduction in the adhesion of monocytes to endothelial cells [1]: only effective at 1 μM and 2 µM

OC[C@H]1O[C@@H](Oc2cc3c(O)cc(O)cc3[o+]c2-c2ccc(O)c(O)c2)[C@H](O)[C@@H](O)[C@H]1O [galactoside]
concentrations with significant reduction in the adhesion of monocytes to endothelial cells [1]: 0.1 to 2 µM

O=C(O)CNC(=O)c1ccccc1 [hippuric acids, hippuric acid]
concentrations with significant reduction in the adhesion of monocytes to endothelial cells [1]: only effective at 1 μM and 2 µM

O=C(O)c1ccc(O)c(O)c1 [protocatechuic acid]
concentrations with significant reduction in the adhesion of monocytes to endothelial cells [1]: all concentration tested

Triton X-100 [reference compound]
cell viability reduced up to (HUVECs): 20%
